ChEMBL document CHEMBL1201862, “PubChem BioAssay data set” (2004)
The source made the active and inactive calls.

Assays:
Type in all cases: functional
[1] = target: Cyclin-dependent kinase 5 (Homo sapiens, UniProt Q00535);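 also: CDK5 measured as one member of a kinase profiling panel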
[2] = target: Calcium/calmodulin-dependent protein kinase type II subunit delta (Homo sapiens, UniProt Q13557)
[3] = target: Protein kinase C gamma type (Homo sapiens, UniProt P05129)
[4] = target: Serine/threonine-protein kinase pim-1 (Homo sapiens, UniProt P11309)
[5] = target: RAC-alpha serine/threonine-protein kinase (Homo sapiens, UniProt P31749);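 also: AKT1 affinity measured as one member of a kinome-wide kinase profiling panel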
[6] = target: Calcium/calmodulin-dependent protein kinase type 1 (Homo sapiens, UniProt Q14012)
Sequence of Calcium/calmodulin-dependent protein kinase type 1 (Q14012 whole entry): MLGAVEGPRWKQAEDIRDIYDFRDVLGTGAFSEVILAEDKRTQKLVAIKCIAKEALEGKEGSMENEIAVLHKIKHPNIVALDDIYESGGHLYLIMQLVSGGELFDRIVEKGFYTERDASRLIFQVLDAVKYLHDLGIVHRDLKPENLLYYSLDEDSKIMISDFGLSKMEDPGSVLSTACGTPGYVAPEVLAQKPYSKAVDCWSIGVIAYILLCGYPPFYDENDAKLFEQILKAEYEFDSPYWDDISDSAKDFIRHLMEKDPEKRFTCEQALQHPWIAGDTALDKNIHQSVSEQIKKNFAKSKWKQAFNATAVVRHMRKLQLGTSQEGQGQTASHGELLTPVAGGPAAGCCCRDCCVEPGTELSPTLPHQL

[7] = target: Serine/threonine-protein kinase BRSK1 (Homo sapiens, UniProt Q8TDC3);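 also: measured within a kinome-wide kinase panel, with the target listed as KIAA1811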
[8] = target: Phosphorylase b kinase gamma catalytic chain, liver/testis isoform (Homo sapiens, UniProt P15735);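 also: PHKG2 measured as one member of a kinome-wide kinase panel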
Sequence of Phosphorylase b kinase gamma catalytic chain, liver/testis isoform (P15735 whole entry, canonical isoform): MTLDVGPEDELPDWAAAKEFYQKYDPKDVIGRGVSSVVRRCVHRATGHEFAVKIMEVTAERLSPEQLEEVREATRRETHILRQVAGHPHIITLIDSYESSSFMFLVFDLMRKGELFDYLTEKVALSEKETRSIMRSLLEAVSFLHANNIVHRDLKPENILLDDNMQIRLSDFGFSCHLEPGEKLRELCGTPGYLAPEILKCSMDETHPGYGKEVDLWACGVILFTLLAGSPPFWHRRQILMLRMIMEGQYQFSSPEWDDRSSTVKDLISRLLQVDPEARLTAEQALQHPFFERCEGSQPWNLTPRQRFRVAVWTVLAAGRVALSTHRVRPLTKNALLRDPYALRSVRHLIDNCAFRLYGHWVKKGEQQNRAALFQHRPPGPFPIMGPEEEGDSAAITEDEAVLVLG

[9] = target: Serine/threonine-protein kinase TAO1 (Homo sapiens, UniProt Q7L7X3)
Sequence of Serine/threonine-protein kinase TAO1 (Q7L7X3 whole entry): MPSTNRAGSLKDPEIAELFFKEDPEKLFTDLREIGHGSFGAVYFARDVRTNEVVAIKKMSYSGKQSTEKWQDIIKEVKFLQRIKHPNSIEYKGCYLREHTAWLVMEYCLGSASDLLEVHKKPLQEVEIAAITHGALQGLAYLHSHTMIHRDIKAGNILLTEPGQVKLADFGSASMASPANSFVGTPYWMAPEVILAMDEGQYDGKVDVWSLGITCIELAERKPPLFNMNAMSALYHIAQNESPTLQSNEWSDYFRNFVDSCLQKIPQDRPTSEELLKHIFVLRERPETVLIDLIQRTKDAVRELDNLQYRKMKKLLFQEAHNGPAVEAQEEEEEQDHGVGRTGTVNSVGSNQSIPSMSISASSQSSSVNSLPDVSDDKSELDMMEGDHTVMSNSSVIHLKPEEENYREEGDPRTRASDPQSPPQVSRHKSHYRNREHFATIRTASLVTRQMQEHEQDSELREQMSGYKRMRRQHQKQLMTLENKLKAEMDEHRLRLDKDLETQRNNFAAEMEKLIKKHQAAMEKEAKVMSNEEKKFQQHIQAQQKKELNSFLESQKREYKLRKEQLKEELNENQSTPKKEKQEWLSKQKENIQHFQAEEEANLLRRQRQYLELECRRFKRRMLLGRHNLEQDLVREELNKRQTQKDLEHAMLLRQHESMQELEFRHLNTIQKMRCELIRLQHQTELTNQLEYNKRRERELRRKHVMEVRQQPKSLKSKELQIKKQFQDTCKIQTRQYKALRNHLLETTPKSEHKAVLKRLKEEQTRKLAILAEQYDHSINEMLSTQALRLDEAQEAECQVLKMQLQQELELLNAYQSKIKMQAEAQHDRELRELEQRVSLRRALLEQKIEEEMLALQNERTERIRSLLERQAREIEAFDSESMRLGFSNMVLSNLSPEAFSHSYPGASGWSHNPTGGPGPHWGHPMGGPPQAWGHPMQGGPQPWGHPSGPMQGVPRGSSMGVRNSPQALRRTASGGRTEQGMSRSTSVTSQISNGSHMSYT

[10] = target: Dual specificity protein kinase CLK2 (Homo sapiens, UniProt P49760)
[11] = target: Cyclin-dependent kinase 1 (Homo sapiens, UniProt P06493);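 also: Kinome-wide panel profiling, with the target listed as panel member CDC2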
Sequence of Cyclin-dependent kinase 1 (P06493 whole entry): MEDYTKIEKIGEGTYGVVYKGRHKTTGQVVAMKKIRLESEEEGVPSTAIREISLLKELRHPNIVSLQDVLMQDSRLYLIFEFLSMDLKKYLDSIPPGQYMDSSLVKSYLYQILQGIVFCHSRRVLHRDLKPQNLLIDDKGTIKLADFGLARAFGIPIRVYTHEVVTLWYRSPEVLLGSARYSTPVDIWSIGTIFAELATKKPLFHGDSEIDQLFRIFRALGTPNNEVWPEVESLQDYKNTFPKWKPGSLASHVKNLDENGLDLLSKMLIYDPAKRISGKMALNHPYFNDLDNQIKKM

[12] = target: Serine/threonine-protein kinase Nek4 (Homo sapiens, UniProt P51957)
[13] = target: Casein kinase I isoform delta (Homo sapiens, UniProt P48730);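 also: measured as one member (CSNK1D) of a kinome panel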
[14] = target: Serine/threonine-protein kinase D3 (Homo sapiens, UniProt O94806);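 also: determined within a kinase panel screen, with PRKCN as the panel member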
[15] = target: Serine/threonine-protein kinase PAK 4 (Homo sapiens, UniProt O96013);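 also: value obtained within a kinome profiling panel in which PAK4 was one of the panel members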
[16] = target: cAMP-dependent protein kinase catalytic subunit alpha (Homo sapiens, UniProt P17612)
[17] = target: Mitogen-activated protein kinase kinase kinase 20 (Homo sapiens, UniProt Q9NYL2)
[18] = target: T1, Interleukin-1 receptor-associated kinase 4 (Homo sapiens, UniProt Q9NWZ3)
T1 sequence (Q9NWZ3 whole entry): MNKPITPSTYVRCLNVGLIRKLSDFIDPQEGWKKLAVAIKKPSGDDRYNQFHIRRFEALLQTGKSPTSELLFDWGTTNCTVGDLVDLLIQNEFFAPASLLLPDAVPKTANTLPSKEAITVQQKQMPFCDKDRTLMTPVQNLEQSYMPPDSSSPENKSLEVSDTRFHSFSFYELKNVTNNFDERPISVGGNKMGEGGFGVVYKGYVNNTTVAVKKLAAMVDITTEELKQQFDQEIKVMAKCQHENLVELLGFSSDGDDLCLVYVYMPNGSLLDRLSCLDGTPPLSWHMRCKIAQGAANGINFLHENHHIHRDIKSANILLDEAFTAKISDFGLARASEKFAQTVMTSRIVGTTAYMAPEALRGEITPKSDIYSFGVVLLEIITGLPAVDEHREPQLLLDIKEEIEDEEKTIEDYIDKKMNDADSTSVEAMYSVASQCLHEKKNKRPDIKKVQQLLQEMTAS

[19] = target: Insulin receptor (Homo sapiens, UniProt P06213);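 also: insulin receptor kinase tested as one member of a kinome-wide kinase panel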
[20] = target: Ribosomal protein S6 kinase beta-1 (Homo sapiens, UniProt P23443);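 also: measured as one member of a kinome-wide profiling panel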
Sequence of Ribosomal protein S6 kinase beta-1 (P23443 whole entry): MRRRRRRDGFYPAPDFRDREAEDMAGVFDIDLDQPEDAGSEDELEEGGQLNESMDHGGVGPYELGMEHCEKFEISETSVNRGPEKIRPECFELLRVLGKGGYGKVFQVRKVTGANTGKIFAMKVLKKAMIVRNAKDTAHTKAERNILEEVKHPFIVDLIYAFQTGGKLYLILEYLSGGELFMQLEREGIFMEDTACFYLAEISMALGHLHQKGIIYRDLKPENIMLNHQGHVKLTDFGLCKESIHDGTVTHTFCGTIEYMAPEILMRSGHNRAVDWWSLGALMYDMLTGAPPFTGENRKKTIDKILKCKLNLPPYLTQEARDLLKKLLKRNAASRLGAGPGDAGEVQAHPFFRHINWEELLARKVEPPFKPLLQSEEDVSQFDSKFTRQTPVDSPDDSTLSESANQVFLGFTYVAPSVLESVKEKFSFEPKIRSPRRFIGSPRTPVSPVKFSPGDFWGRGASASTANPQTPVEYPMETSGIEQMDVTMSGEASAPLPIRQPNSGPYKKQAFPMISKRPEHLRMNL

[21] = target: Aurora kinase B (Homo sapiens, UniProt Q96GD4)
[22] = target: Serine/threonine-protein kinase PAK 1 (Homo sapiens, UniProt Q13153)
[23] = target: Casein kinase I isoform alpha (Homo sapiens, UniProt P48729)
Sequence of Casein kinase I isoform alpha (P48729 whole entry, canonical isoform): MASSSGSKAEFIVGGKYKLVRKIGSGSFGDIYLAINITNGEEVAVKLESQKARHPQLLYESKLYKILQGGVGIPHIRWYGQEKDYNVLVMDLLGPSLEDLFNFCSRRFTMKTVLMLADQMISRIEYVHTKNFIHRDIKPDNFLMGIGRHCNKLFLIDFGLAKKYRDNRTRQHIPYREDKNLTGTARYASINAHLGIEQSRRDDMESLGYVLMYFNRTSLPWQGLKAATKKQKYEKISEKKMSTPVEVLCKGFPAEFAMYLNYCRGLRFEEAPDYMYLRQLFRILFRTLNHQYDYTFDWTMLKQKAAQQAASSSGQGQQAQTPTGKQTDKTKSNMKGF

[24] = target: Tyrosine-protein kinase SYK (Homo sapiens, UniProt P43405)
[25] = target: Lymphokine-activated killer T-cell-originated protein kinase (Homo sapiens, UniProt Q96KB5);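 also: value comes from a kinase panel screen in which TOPK was one of the panel members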
[26] = target: Dual specificity tyrosine-phosphorylation-regulated kinase 4 (Homo sapiens, UniProt Q9NR20)
Sequence of Dual specificity tyrosine-phosphorylation-regulated kinase 4 (Q9NR20 whole entry): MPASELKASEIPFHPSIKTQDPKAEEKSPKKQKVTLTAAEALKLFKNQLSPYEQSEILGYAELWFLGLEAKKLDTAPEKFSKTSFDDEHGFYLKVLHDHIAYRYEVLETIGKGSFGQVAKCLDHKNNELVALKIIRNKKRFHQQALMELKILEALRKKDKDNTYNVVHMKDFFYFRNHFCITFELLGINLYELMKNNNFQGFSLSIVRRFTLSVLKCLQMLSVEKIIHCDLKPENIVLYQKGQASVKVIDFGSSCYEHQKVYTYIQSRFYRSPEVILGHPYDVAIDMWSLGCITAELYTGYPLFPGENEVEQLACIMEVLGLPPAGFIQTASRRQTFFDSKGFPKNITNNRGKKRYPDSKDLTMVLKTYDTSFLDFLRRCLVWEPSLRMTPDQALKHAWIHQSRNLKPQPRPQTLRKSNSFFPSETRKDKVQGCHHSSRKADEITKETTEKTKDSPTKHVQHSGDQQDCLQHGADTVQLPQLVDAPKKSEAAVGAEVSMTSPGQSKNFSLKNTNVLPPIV

[27] = target: Serine/threonine-protein kinase N2 (Homo sapiens, UniProt Q16513)
[28] = target: Homeodomain-interacting protein kinase 4 (Homo sapiens, UniProt Q8NE63)
Sequence of Homeodomain-interacting protein kinase 4 (Q8NE63 whole entry): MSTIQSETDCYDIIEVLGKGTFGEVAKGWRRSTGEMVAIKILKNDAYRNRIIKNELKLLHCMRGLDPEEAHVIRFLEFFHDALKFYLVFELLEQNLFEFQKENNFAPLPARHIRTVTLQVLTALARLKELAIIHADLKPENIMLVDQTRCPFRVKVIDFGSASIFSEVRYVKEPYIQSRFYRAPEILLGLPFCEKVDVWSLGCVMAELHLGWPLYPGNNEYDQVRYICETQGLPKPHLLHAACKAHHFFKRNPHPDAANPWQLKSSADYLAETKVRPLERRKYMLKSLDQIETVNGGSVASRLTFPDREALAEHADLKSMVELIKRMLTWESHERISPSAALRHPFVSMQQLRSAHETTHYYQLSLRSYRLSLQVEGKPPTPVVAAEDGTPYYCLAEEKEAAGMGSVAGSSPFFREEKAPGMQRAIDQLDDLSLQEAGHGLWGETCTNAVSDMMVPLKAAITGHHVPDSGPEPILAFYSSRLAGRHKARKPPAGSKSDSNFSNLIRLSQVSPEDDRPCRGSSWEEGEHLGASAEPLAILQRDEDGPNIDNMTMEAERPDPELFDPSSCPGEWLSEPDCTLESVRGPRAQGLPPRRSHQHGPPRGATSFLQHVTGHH

[29] = target: Serine/threonine-protein kinase DCLK1 (Homo sapiens, UniProt O15075);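 also: affinity for DCLK1 (listed as DCAMKL1) measured as one member of a kinome-wide kinase profiling panel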
[30] = target: Serine/threonine-protein kinase MRCK alpha (Homo sapiens, UniProt Q5VT25)
[31] = target: Mitogen-activated protein kinase 12 (Homo sapiens, UniProt P53778);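 also: measured as one member of a kinome-wide kinase profiling panel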
[32] = target: Serine/threonine-protein kinase pim-3 (Homo sapiens, UniProt Q86V86);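 also: value obtained as one member of a broad kinase panel profiling effort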
[33] = target: SRSF protein kinase 1 (Homo sapiens, UniProt Q96SB4);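 also: measured as one member of a kinome-wide kinase profiling panel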
[34] = target: Casein kinase II subunit alpha (Homo sapiens, UniProt P68400)
[35] = target: Protein kinase C delta type (Homo sapiens, UniProt Q05655)
[36] = target: Mitogen-activated protein kinase 1 (Homo sapiens, UniProt P28482)
[37] = target: Serine/threonine-protein kinase 17A (Homo sapiens, UniProt Q9UEE5)
Sequence of Serine/threonine-protein kinase 17A (Q9UEE5 whole entry): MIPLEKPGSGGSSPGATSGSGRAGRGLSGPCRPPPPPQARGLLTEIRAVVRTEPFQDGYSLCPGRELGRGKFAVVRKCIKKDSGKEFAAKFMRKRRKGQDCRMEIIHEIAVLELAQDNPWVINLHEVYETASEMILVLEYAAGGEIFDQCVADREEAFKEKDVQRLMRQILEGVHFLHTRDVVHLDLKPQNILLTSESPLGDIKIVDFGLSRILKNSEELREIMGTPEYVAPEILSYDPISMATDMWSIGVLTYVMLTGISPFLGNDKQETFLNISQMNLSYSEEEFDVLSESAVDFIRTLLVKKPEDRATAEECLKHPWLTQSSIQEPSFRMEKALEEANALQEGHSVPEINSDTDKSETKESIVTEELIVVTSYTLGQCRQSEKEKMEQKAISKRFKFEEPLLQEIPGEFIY

[38] = target: Serine/threonine-protein kinase Chk1 (Homo sapiens, UniProt O14757);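 also: measured as one member of a kinome-wide kinase profiling panel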
Sequence of Serine/threonine-protein kinase Chk1 (O14757 whole entry): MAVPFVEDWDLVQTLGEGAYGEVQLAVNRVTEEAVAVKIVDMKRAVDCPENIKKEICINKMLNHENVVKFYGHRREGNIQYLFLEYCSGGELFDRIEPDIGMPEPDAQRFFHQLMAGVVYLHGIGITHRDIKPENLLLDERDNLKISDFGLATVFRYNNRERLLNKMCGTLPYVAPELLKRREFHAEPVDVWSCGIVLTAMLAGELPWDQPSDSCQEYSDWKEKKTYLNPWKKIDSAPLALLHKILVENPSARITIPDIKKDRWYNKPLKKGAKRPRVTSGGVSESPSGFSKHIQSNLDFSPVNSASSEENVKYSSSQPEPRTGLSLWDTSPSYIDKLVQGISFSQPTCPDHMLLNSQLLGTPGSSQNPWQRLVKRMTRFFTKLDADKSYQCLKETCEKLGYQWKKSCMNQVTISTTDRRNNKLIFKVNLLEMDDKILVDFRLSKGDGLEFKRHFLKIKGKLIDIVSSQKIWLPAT

[39] = target: Serine/threonine-protein kinase Nek2 (Homo sapiens, UniProt P51955)
[40] = target: STE20-like serine/threonine-protein kinase (Homo sapiens, UniProt Q9H2G2)

Measured: Ki

NNc1cc(N2CCOCC2)nc(OCCc2ccccn2)n1
inactive: [1] > 6.31 µM | [2] > 6.31 µM | [3] > 7.94 µM | [4] > 6.31 µM | [5] > 7.94 µM | [6] > 5.01 µM | [8] > 5.01 µM | [9] > 5.01 µM | [10] > 5.01 µM | [11] > 7.94 µM | [12] > 6.31 µM | [13] > 7.94 µM | [14] > 6.31 µM | [15] > 5.01 µM | [16] > 3.98 µM | [17] > 7.94 µM | [19] > 5.01 µM | [20] > 6.31 µM | [21] > 6.31 µM | [22] > 10 µM | [23] > 5.01 µM | [25] > 10 µM | [26] > 7.94 µM | [27] > 7.94 µM | [28] > 7.94 µM | [29] > 10 µM | [30] > 10 µM | [31] > 6.31 µM | [32] > 7.94 µM | [33] > 7.94 µM | [34] > 6.31 µM | [35] > 7.94 µM | [36] > 7.94 µM | [37] > 3.98 µM | [38] > 7.94 µM | [39] > 10 µM | [40] > 10 µM
active: [7] 7.94 µM | [18] 2.51 µM | [24] 0.398 µM
